Source: patent US20150344457A1, “METHODS OF INHIBITING PRMT5” (EPIZYME, INC., priority 2012, published 2015)
Read-outs that look alike come from different tables or passages of the source.

Biological target: T1, PRMT5/MEP50 (Homo sapiens, UniProt O14744)
T1 construct: Expressed full-length human Flag-PRMT5/6His-MeP50 protein complex was purified; made in house; host or cells: Spodoptera frugiperda (SF9) insect cells, baculovirus (pDEST8)
Assay: PRMT5 Biochemical Assay (PRMT5/MEP50 enzyme assay on peptide substrate, 3H-SAM Flashplate)
Conditions: read-out: Biochemical IC50

T1 sequence (O14744 with tags, fused parts or gaps): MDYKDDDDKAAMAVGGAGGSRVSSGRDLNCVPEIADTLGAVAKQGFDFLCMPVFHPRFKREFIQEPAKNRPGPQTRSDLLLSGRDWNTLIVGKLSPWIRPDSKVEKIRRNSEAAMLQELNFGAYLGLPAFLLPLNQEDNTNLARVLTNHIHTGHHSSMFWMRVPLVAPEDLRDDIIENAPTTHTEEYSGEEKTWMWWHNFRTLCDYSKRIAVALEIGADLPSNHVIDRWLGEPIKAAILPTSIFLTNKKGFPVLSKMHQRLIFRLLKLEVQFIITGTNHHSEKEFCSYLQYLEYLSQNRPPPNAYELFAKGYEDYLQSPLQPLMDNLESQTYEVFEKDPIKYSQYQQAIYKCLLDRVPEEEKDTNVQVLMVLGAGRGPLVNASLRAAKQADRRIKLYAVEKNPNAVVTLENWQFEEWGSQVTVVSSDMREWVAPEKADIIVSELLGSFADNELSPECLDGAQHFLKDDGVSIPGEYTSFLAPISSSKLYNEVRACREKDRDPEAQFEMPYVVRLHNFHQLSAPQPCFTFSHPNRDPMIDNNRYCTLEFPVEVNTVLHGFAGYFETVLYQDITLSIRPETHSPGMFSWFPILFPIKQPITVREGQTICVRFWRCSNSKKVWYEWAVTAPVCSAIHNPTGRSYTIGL
T1 sequence (Q9BQA1 with tags, fused parts or gaps partner limits assumed): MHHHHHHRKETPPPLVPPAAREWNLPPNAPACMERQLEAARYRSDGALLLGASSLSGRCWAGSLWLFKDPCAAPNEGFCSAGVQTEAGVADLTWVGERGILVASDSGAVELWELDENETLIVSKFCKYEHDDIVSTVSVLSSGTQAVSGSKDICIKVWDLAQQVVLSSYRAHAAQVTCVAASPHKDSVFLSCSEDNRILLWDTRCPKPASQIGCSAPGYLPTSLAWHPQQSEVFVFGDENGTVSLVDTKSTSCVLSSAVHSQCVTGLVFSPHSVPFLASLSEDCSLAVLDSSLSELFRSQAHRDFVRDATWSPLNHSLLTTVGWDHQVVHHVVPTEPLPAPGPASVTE

Row | Compound | IC50 (Table D-2) [µM] | IC50 (Table E-2) [µM]
1 | Oc1ccc(-c2cccc(OCC(O)CN3CCc4ccccc4C3)c2)cc1 (stereo not shown) [Compound D96] | 1 to 10 | –
2 | OC(COc1cccc(-c2ccncc2)c1)CN1CCc2ccccc2C1 (stereo not shown) [Compound D97] | 1 to 10 | –
3 | OC(COc1cccc(-c2ccccn2)c1)CN1CCc2ccccc2C1 (stereo not shown) [Compound D98] | 1 to 10 | –
4 | CN(CC(O)CN1CCc2ccccc2C1)c1cccc(C(=O)NC2CCOCC2)c1 (stereo not shown) [Compound D99] | 10 to 40 | –
5 | COc1cccc2c1CN(CC(O)COc1cccc(-c3ccc4ncn(C)c4c3)c1)CC2 (stereo not shown) [Compound D100] | 1 to 10 | –
6 | CC1CN(CC(O)COc2cccc(-c3ccc4ncn(C)c4c3)c2)Cc2ccccc21 (stereo not shown) [Compound D101] | 1 to 10 | –
7 | Cn1cc2cc(-c3cccc(OCC(O)CN4CCc5ccccc5C4)c3)ccc2n1 (stereo not shown) [Compound D115] | 1 to 10 | –
8 | Cn1cnc2ccc(-c3nccc(NCC(O)CN4CCc5ccccc5C4)n3)cc21 (stereo not shown) [Compound D120] | 1 to 10 | –
9 | CC1Cc2ccccc2CN1CC(O)COc1cccc(-c2ccc3ncn(C)c3c2)c1 (stereo not shown) [Compound D122] | 1 to 10 | –
10 | OC(COc1cccc(-c2cc(Cl)cc(C(F)(F)F)c2)c1)CN1CCc2ccccc2C1 (stereo not shown) [Compound D128] | 1 to 10 | –
11 | OC(COc1cccc(-c2ccc(C(F)(F)F)cc2)c1)CN1CCc2ccccc2C1 (stereo not shown) [Compound D133] | 1 to 10 | –
12 | OC(COc1cccc(-c2cncnc2)c1)CN1CCc2ccccc2C1 (stereo not shown) [Compound D140] | 1 to 10 | –
13 | COc1cccc2c1CCN(CC(O)COc1cccc(-c3ccc4ncn(C)c4c3)c1)C2 (stereo not shown) [Compound D142] | 1 to 10 | –
14 | Cn1cnc2ccc(-c3cccc(OCC(O)CN4CCc5ccccc5C4Cc4ccccc4)c3)cc21 (stereo not shown) [Compound D143] | > 40 | –
15 | CCOC(=O)CC1c2ccccc2CCN1CC(O)COc1cccc(-c2ccc3ncn(C)c3c2)c1 (stereo not shown) [Compound D144] | 1 to 10 | –
16 | COc1cc2c(cc1OC)CN(CC(O)COc1cccc(-c3ccc4ncn(C)c4c3)c1)CC2 (stereo not shown) [Compound D146] | > 40 | –
17 | COc1ncc(-c2cccc(OCC(O)CN3CCc4ccccc4C3)c2)cn1 (stereo not shown) [Compound D153] | 1 to 10 | –
18 | OC(COc1cccc(-c2cnccn2)c1)CN1CCc2ccccc2C1 (stereo not shown) [Compound D155] | 1 to 10 | –
19 | O=C(Nc1cccc(OCC(O)CN2CCc3ccccc3C2)c1)c1cnco1 (stereo not shown) [Compound D158] | 1 to 10 | –
20 | O=C(Nc1cccc(OCC(O)CN2CCc3ccccc3C2)c1)c1cocn1 (stereo not shown) [Compound D159] | 1 to 10 | –
21 | Cn1cnc2nc(-c3cccc(OCC(O)CN4CCc5ccccc5C4)c3)ncc21 (stereo not shown) [Compound D165] | 1 to 10 | –
22 | OC(COC1CCN(c2ccccc2)C1)CN1CCc2ccccc2C1 (stereo not shown) [Compound D175] | 1 to 10 | –
23 | COc1ccc2c(c1)CN(CC(O)COc1cccc(-c3ccc4ncn(C)c4c3)c1)CC2 (stereo not shown) [Compound D177] | 10 to 40 | –
24 | Cn1cnc2ccc(-c3cccc(OCC(O)CN4CCc5ccccc5C4COc4ccccc4)c3)cc21 (stereo not shown) [Compound D178] | > 40 | –
25 | O=C(c1cncc(-c2cccc(OCC(O)CN3CCc4ccccc4C3)c2)c1)N1CCCC1 (stereo not shown) [Compound D181] | 1 to 10 | –
26 | O=C(Nc1cccc(OCC(O)CN2CCc3ccccc3C2)c1)c1ccnnc1 (stereo not shown) [Compound D184] | 1 to 10 | –

Row | Compound | IC50 (Table D-2) [µM] | IC50 (Table E-2) [µM]
27 | OC(COc1cccc(-c2ccncc2F)c1)CN1CCc2ccccc2C1 (stereo not shown) [Compound D190] | 1 to 10 | –
28 | Cc1cccc2c1CN(CC(O)COc1cccc(-c3ccc4ncn(C)c4c3)c1)CC2 (stereo not shown) [Compound D192] | 1 to 10 | –
29 | CCOC(=O)C1c2ccccc2CCN1CC(O)COc1cccc(-c2ccc3ncn(C)c3c2)c1 (stereo not shown) [Compound D193] | > 40 | –
30 | OC(COc1cccc(N2CCc3[nH]nc(-c4ccccc4)c3C2)c1)CN1CCc2ccccc2C1 (stereo not shown) [Compound D194] | 1 to 10 | –
31 | Cn1cncc1C(=O)Nc1cccc(OCC(O)CN2CCc3ccccc3C2)c1 (stereo not shown) [Compound D195] | 1 to 10 | –
32 | CN(C(=O)c1cnco1)c1cccc(OCC(O)CN2CCc3ccccc3C2)c1 (stereo not shown) [Compound D196] | 1 to 10 | –
33 | CN(C(=O)c1cn(C)cn1)c1cccc(OCC(O)CN2CCc3ccccc3C2)c1 (stereo not shown) [Compound D197] | 1 to 10 | –
34 | CN(C(=O)c1cocn1)c1cccc(OCC(O)CN2CCc3ccccc3C2)c1 (stereo not shown) [Compound D198] | 10 to 40 | –
35 | Cn1cnc2ccc(-c3cccc(OCC(O)CN4CCc5ccccc5C4CC(N)=O)c3)cc21 (stereo not shown) [Compound D202] | > 40 | –
36 | CN(C(=O)c1cncn1C)c1cccc(OCC(O)CN2CCc3ccccc3C2)c1 (stereo not shown) [Compound D203] | 1 to 10 | –
37 | CN(C(=O)c1cccnc1)c1cccc(OCC(O)CN2CCc3ccccc3C2)c1 (stereo not shown) [Compound D204] | 1 to 10 | –
38 | CNC(=O)Cn1ccc2cnc(-c3cccc(OCC(O)CN4CCc5ccccc5C4)c3)nc21 (stereo not shown) [Compound D206] | 1 to 10 | –
39 | Cn1cnc2ccc(-c3cccc(OCC(O)CN4CCc5ccccc5C4(C)C)c3)cc21 (stereo not shown) [Compound D211] | 1 to 10 | –
40 | Cc1ccc2c(c1)CN(CC(O)COc1cccc(-c3ccc4ncn(C)c4c3)c1)CC2 (stereo not shown) [Compound D212] | 1 to 10 | –
41 | Cc1cccc2c1CCN(CC(O)COc1cccc(-c3ccc4ncn(C)c4c3)c1)C2 (stereo not shown) [Compound D213] | 1 to 10 | –
42 | Cn1cnc2ccc(-c3cccc(OCC(O)CN4CCc5ccc(Cl)cc5C4)c3)cc21 (stereo not shown) [Compound D214] | 1 to 10 | –
43 | Cn1cnc2ccc(-c3cccc(OCC(O)CN4CCc5c(Cl)cccc5C4)c3)cc21 (stereo not shown) [Compound D215] | 1 to 10 | –
44 | Cn1cnc2ccc(-c3cccc(OCC(O)CN4CCc5ccccc5C4=O)c3)cc21 (stereo not shown) [Compound D225] | > 40 | –
45 | Cn1ccc2ccc(-c3ccnc(NCC(O)CN4CCc5ccccc5C4)c3)cc21 (stereo not shown) [Compound D227] | < 0.1 | –
46 | CC(=O)N1CCC(n2cnc3ccc(-c4cccc(OCC(O)CN5CCc6ccccc6C5)c4)cc32)CC1 (stereo not shown) [Compound D228] | 0.101 to 1 | –
47 | OC(CNc1cc(-c2ccc3ncn(C4CNC4)c3c2)ccn1)CN1CCc2ccccc2C1 (stereo not shown) [Compound D229] | < 0.1 | –
48 | CN1CC(n2cnc3ccc(-c4ccnc(NCC(O)CN5CCc6ccccc6C5)c4)cc32)C1 (stereo not shown) [Compound D230] | < 0.1 | –
49 | O=C(Cn1ccc2cnc(-c3cccc(OCC(O)CN4CCc5ccccc5C4)c3)nc21)N1CCCC1 (stereo not shown) [Compound D231] | 0.101 to 1 | –
50 | O=C(Cn1ccc2cnc(-c3cccc(OCC(O)CN4CCc5ccccc5C4)c3)nc21)N1CCCCC1 (stereo not shown) [Compound D232] | 0.101 to 1 | –
51 | O=C(Nc1ccccn1)c1cccc(OCC(O)CN2CCc3ccccc3C2)c1 (stereo not shown) [Compound D267] | 0.101 to 1 | –
52 | O=C(Nc1cccnc1)c1cccc(OCC(O)CN2CCc3ccccc3C2)c1 (stereo not shown) [Compound D268] | 1 to 10 | –

Row | Compound | IC50 (Table D-2) [µM] | IC50 (Table E-2) [µM]
53 | O=C(Nc1cc[nH]n1)c1cccc(OCC(O)CN2CCc3ccccc3C2)c1 (stereo not shown) [Compound D274] | 1 to 10 | –
54 | Cn1cnc2ccc(-c3cccc(OCC(O)CN4Cc5ccccc5C(F)(F)C4)c3)cc21 (stereo not shown) [Compound D277] | > 10 | –
55 | OC(COCc1ccc(Cl)cc1)CN1CCc2ccccc2C1 (stereo not shown) [Compound D278] | 1 to 10 | –
56 | COc1c(COCC(O)CN2CCc3ccccc3C2)ccc2ccccc12 (stereo not shown) [Compound D279] | 1 to 10 | –
57 | OC(COCc1ccc(Cl)cc1Cl)CN1CCc2ccccc2C1 (stereo not shown) [Compound D281] | 1 to 10 | –
58 | OC(COCc1ccccn1)CN1CCc2ccccc2C1 (stereo not shown) [Compound D282] | 10 to 40 | –
59 | OC(COCc1cccnc1)CN1CCc2ccccc2C1 (stereo not shown) [Compound D283] | 10 to 40 | –
60 | OC(COCc1ccncc1)CN1CCc2ccccc2C1 (stereo not shown) [Compound D284] | 10 to 40 | –
61 | CC(C)(C)OC(=O)N1CCC(OCC(O)CN2CCc3ccccc3C2)C1 (stereo not shown) [Compound D287] | 1 to 10 | –
62 | OC(COC1CCCC1)CN1CCc2ccccc2C1 (stereo not shown) [Compound D302] | 1 to 10 | –
63 | Nc1cccc(C(=O)NCC(O)CN2Cc3ccccc3C2)c1 (stereo not shown) [Compound E2.] | – | 1 to 10
64 | O=C(COc1cccc2cccnc12)NC[C@H](O)CN1Cc2ccccc2C1 [Compound E4.] | – | < 0.1
65 | C[C@@H](Oc1cccc2cccnc12)C(=O)NC[C@H](O)CN1Cc2ccccc2C1 [Compound E5.] | – | < 0.1
66 | C[C@H](Oc1cccc2cccnc12)C(=O)NC[C@@H](O)CN1Cc2ccccc2C1 [Compound E6.] | – | > 10
67 | O=C(COc1ccccc1-c1cc[nH]n1)NCC(O)CN1Cc2ccccc2C1 (stereo not shown) [Compound E7.] | – | 0.101 to 1
68 | Cn1cnc2ccc(-c3cccc(OCC(O)CN4Cc5ccccc5C4)c3)cc21 (stereo not shown) [Compound E9.] | – | 1 to 10
69 | CC(C)(C)OC(=O)Nc1cccc(C(=O)NCC(O)CN2Cc3ccccc3C2)c1 (stereo not shown) [Compound E11.] | – | 0.101 to 1
70 | CS(=O)(=O)c1ccccc1OCC(=O)NCC(O)CN1Cc2ccccc2C1 (stereo not shown) [Compound E12.] | – | 0.101 to 1
71 | O=C(NCC(O)CN1Cc2ccccc2C1)c1cccc(-c2ccccn2)c1 (stereo not shown) [Compound E13.] | – | 0.101 to 1
72 | CN(C)S(=O)(=O)c1ccccc1OCC(=O)NCC(O)CN1Cc2ccccc2C1 (stereo not shown) [Compound E15.] | – | < 0.1
73 | O=C(COc1cccc2cccnc12)NC[C@@H](O)CN1Cc2ccccc2C1 [Compound E16.] | – | 1 to 10
74 | COc1ccc(Cn2cnc3ccc(-c4ccc(OCC(O)CN5Cc6ccccc6C5)cc4)cc32)cc1 (stereo not shown) [Compound E18.] | – | 1 to 10
75 | O=C(COc1cccc2cccnc12)NCC(O)CN1Cc2ccccc2C1 (stereo not shown) [Compound E19.] | – | 0.101 to 1
76 | OC(COc1cccc(CNC2CCCC2)c1)CN1Cc2ccccc2C1 (stereo not shown) [Compound E20.] | – | 1 to 10
